{
  "source": "patent US20080161274A1",
  "about": "“Compounds and methods for inhibition of bone loss” (Resolvyx Pharmaceuticals, Inc., priority 2006, published 2008)",
  "key": {"[1]": {"tested_on": "rats with CIA", "experiment": "Rat collagen-induced arthritis (CIA), knee histopathology scoring", "format": "in vivo", "settings": "rats n=9", "procedure": "Female Lewis rats were anesthetized with 3-5% isoflurane and arthritis was induced by intradermal injection of 0.3 mL (100 μL at three different sites) of an emulsion containing 1.5 mg/mL of type II bovine collagen, CII (Elastin Products Inc., Cat# CM276), in incomplete Freund's adjuvant (IFA) at the base of the tail on day 0 and 6. Control rats were injected with an equal amount of IFA only.\nThe volume of both hind paws were measured using a water displacement plethysmometer (Ugo Basile, Biological Research Apparatus, Italy), and the onset of arthritis was indicated by increased paw volume, which appeared approximately on day 11 post injection. Both paw volumes and body weights were measured throughout the study every 2-3 days. Nineteen to twenty-one days after CII injection, the rats were euthanized with CO2. Blood was collected by cardiac puncture and serum was saved.\nBovine Type II collagen for tissue culture was purchased from Chondrex (Cat# 2022) and was reconstituted according to the manufacturer's instructions. All data were processed and analyzed by t-test using GraphPad Prism software.\nAfter the animals were euthanized, both hind paws and knees were removed, hind paws were weighed, and the paws and knees were placed in formalin. Following 1-2 days in fixative and 4-5 days in decalcifier, the ankle joints were cut in half longitudinally, and the knees were cut in half in the frontal plane. The joints were then processed, embedded, sectioned and stained with toluidine blue. Collagen arthritic ankles and knees were given scores of 0-5 for inflammation, pannus formation and bone resorption according to the following criteria:\n• 0 Normal • 1 Minimal infiltration of inflammatory cells in periarticular tissue • 2 Mild infiltration • 3 Moderate infiltration with moderate edema • 4 Marked infiltration with marked edema • 5 Severe infiltration with severe edema\n• 0 Normal • 1 Minimal infiltration of pannus in cartilage and subchondral bone • 2 Mild infiltration (extends over up to ¼ of surface or subchondral area of tibia or femur) • 3 Moderate infiltration (extends over >¼ but <½ of surface or subchondral area of tibia or femur) • 4 Marked infiltration (extends over ½ to ¾ of tibial or femoral surface) • 5 Severe infiltration (covers >¾ of surface)\n• 0 Normal • 1 Minimal: minimal to mild loss of toluidine blue staining with no obvious chondrocyte loss or collagen disruption • 2 Mild: mild loss of toluidine blue staining with focal mild (superficial) chondrocyte loss and/or collagen disruption • 3 Moderate: moderate loss of toluidine blue staining with multifocal to diffuse moderate (depth to middle zone) chondrocyte loss and/or collagen disruption • 4 Marked: marked loss of toluidine blue staining with multifocal to diffuse marked (depth to deep zone) chondrocyte loss and/or collagen disruption • 5 Severe: severe diffuse loss of toluidine blue staining with multifocal severe (depth to tide mark) chondrocyte loss and/or collagen disruption on both femur and tibia\n• 0 Normal • 1 Minimal: small areas of resorption, not readily apparent on low magnification, rare osteoclasts • 2 Mild: more numerous areas of resorption, definite loss of subchondral bone involving ¼ of tibial or femoral surface (medial or lateral) • 3 Moderate: obvious resorption of subchondral bone involving >¼ but <½ of tibial or femoral surface (medial or lateral) • 4 Marked: obvious resorption of subchondral bone involving ≧½ but <¾ of tibial or femoral surface (medial or lateral) • 5 Severe: distortion of entire joint due to destruction involving >¾ of tibial or femoral surface (medial or lateral)"}, "[2]": {"tested_on": "mice with established Type II collagen arthritis", "experiment": "11 day male DBA/1J mouse established Type II collagen arthritis", "format": "in vivo", "settings": "for clinical symptoms of arthritis (clinical scoring in the paws) / bone loss (histologic scoring) / pannus formation (histologic scoring): mice n=16; for clinical symptoms of arthritis (clinical scoring in the paws): vs arthritic control, FIG. 2a; for bone loss (histologic scoring) / pannus formation (histologic scoring): FIG. 2b", "procedure": "Male DBA/1J mice (7-9 weeks old on arrival; at least 7 weeks old at time of first immunization) were housed 5 per cage and were acclimated for enough days after arrival such that all animals were at least 7 weeks old at start of study.\nMice were anesthetized with Isoflurane and given intradermal collagen (2 mg/ml) injections at the base of the tail in a volume of 150 μl (D0 and D21). On days 21-35, onset of arthritis occurred and mice were randomized into treatment groups. Randomization into each group was done after swelling was obviously established in at least one paw, and attempts were made to assure approximately equal mean scores across the groups at time of enrollment. Treatment was initiated after enrollment and continued every day for a total of 10 days as outlined in Table 3. During the ten days of treatment, clinical scores were given for each of the paws (right front, left front, right rear, and left rear) according to the scoring methods provided below.\n• 0 normal • 1 1 hind or fore paw joint affected or minimal diffuse erythema and swelling • 2 2 hind or fore paw joints affected or mild diffuse erythema and swelling • 3 3 hind or fore paw joints affected or moderate diffuse erythema and swelling • 4 Marked diffuse erythema and swelling, or 4 digit joints affected • 5 Severe diffuse erythema and severe swelling entire paw, unable to flex digits\nAll dose solutions were prepared to deliver 10 ml/kg (0.3 ml/30 g mouse). On day 11 of arthritis, animals were euthanized, and both fore and hind limbs with knees were removed, placed into formalin and then processed for microscopy. Following 1-2 days in fixative and then 4-5 days in decalcifier, the joints were processed, embedded, sectioned and stained with toluidine blue. (Only fore and hind paws and knees were initially processed—6 joints/mouse.)\nWhen scoring paws or ankles from mice with lesions of type II collagen arthritis, severity of changes as well as number of individual joints affected must be considered. When only 1-3 joints of the paws or ankles out of a possibility of numerous metacarpal/metatarsal/digit or tarsal/tibiotarsal joints were affected, an arbitrary assignment of a maximum score of 1, 2 or 3 from the scoring scale below was given depending on severity of changes. If more than 3 joints were involved, the full scoring scale below was applied only to the most severely affected/majority of joints.\n• 0 Normal • 1 Minimal infiltration of pannus in cartilage and subchondral bone • 2 Mild infiltration with marginal zone destruction of hard tissue in affected joints • 3 Moderate infiltration with moderate hard tissue destruction in affected joints • 4 Marked infiltration with marked destruction of joint architecture, most joints • 5 Severe infiltration associated with total or near total destruction of joint architecture, affects all joints\n• 0 Normal • 1 Minimal—small areas of resorption, not readily apparent on low magnification, rare osteoclasts in affected joints • 2 Mild—more numerous areas of resorption, not readily apparent on low magnification, osteoclasts more numerous in affected joints • 3 Moderate—obvious resorption of medullary trabecular and cortical bone without full thickness defects in cortex, loss of some medullary trabeculae, lesion apparent on low magnification, osteoclasts more numerous in affected joints • 4 Marked—Full thickness defects in cortical bone, often with distortion of profile of remaining cortical surface, marked loss of medullary bone, numerous osteoclasts, affects most joints • 5 Severe—Full thickness defects in cortical bone and destruction of joint architecture of all joints\nHistologic parameters (mean ±SE) for each group were analyzed for differences using the Chi Square Test and one way ANOVA. Significance was set at p≦0.05."}, "[3]": {"settings": "0.3 mg/kg twice daily i.v., days 8 to 19, FIG. 3"}, "[4]": {"settings": "0.5 μg/kg once daily i.v., vs vehicle control"}, "[5]": {"settings": "5.0 μg/kg once daily i.v., vs vehicle control"}},
  "data": [
    {"smiles": "CC[C@@H](O)/C=C/C=C\\C[C@@H](O)/C=C/C=C/C=C\\[C@@H](O)CCCC(=O)O", "note": "[Compound X]", "values": [
      {"measurement": "bone resorption (knee histopathology scoring)", "setting": "[1]; [3]", "value": "significant reduction"},
      {"measurement": "cartilage damage (knee histopathology scoring)", "setting": "[1]; [3]", "value": "significant reduction"},
      {"measurement": "inflammation (knee histopathology scoring)", "setting": "[1]; [3]", "value": "significant reduction"},
      {"measurement": "pannus (knee histopathology scoring)", "setting": "[1]; [3]", "value": "significant reduction"},
      {"measurement": "knee histopathology scores", "setting": "[1]; therapeutic dosing, FIG. 3", "value": "significantly reduced"},
      {"measurement": "bone resorption", "setting": "[1]; therapeutic dosing, FIG. 4", "value": "protected"},
      {"measurement": "joint damage", "setting": "[1]; therapeutic dosing, FIG. 4", "value": "protected"},
      {"measurement": "score of bone damage (histologic scoring in joints)", "setting": "[2]; mice n=15, 5 μg/kg twice daily iv, vs vehicle control, FIG. 1", "value": "significant decrease"},
      {"measurement": "clinical symptoms of arthritis (clinical scoring in the paws)", "setting": "[2]; 0.5 μg/kg once daily i.v.", "value": "inhibited"},
      {"measurement": "bone loss (histologic scoring)", "setting": "[2]; [4]", "value": "reduced"},
      {"measurement": "pannus formation (histologic scoring)", "setting": "[2]; [4]", "value": "reduced"},
      {"measurement": "clinical symptoms of arthritis (clinical scoring in the paws)", "setting": "[2]; 5.0 μg/kg once daily i.v.", "value": "inhibited"},
      {"measurement": "bone loss (histologic scoring)", "setting": "[2]; [5]", "value": "reduced"},
      {"measurement": "pannus formation (histologic scoring)", "setting": "[2]; [5]", "value": "reduced"}
    ]}
  ]
}
